According to PubChem BioAssay (NCI):
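Growth conditions: 96-well plates. Treatment: test compound, 48 hours, 5 concentrations. Analysis: linear interpolation between bracketing concentrations; unreached endpoints set to highest concentration. Definition used: TGI = concentration required for complete inhibition of growth.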

Experiments:
Assay in all cases: NCI-60 cell line screen, 48 h
[1] = test system: 786-0 renal
[2] = test system: A498 renal
[3] = test system: A549 NSCLC
[4] = test system: ACHN renal
[5] = test system: CAKI-1 renal
[6] = test system: CCRF-CEM leukemia
[7] = test system: COLO 205 colon
[8] = test system: DLD-1 colon
[9] = test system: DMS 273 small cell lung
[10] = test system: EKVX NSCLC
[11] = test system: HCC-2998 colon
[12] = test system: HCT-116 colon
[13] = test system: HCT-15 colon
[14] = test system: HL-60(TB) leukemia
[15] = test system: HOP-62 NSCLC
[16] = test system: HT29 colon
[17] = test system: IGROV1 ovarian
[18] = test system: K-562 leukemia
[19] = test system: KM12 colon
[20] = test system: KM20L2 colon
[21] = test system: LOX IMVI melanoma
[22] = test system: LXFL 529 NSCLC
[23] = test system: M14 melanoma
[24] = test system: M19-MEL melanoma
[25] = test system: MALME-3M melanoma
[26] = test system: MOLT-4 leukemia
[27] = test system: NCI-H226 lung
[28] = test system: NCI-H23 lung
[29] = test system: NCI-H460 lung
[30] = test system: NCI-H522 lung
[31] = test system: OVCAR-3 ovarian
[32] = test system: OVCAR-4 ovarian
[33] = test system: OVCAR-5 ovarian
[34] = test system: OVCAR-8 ovarian
[35] = test system: RPMI-8226 leukemia
[36] = test system: RXF 393 renal
[37] = test system: RXF-631 renal
[38] = test system: SF-268 CNS
[39] = test system: SF-295 CNS
[40] = test system: SF-539 CNS
[41] = test system: SK-MEL-2 melanoma
[42] = test system: SK-MEL-28 melanoma
[43] = test system: SK-MEL-5 melanoma
[44] = test system: SK-OV-3 ovarian
[45] = test system: SN12C renal
[46] = test system: SNB-19 CNS
[47] = test system: SNB-75 CNS
[48] = test system: SNB-78 CNS
[49] = test system: SR leukemia
[50] = test system: SW-620 colon
[51] = test system: TK-10 renal
[52] = test system: U251 CNS
[53] = test system: UACC-257 melanoma
[54] = test system: UACC-62 melanoma
[55] = test system: UO-31 renal
[56] = test system: DMS 114 small cell lung
[57] = test system: HOP-18 NSCLC
[58] = test system: HOP-92 NSCLC

SMILES: O=C(O)C(Cc1ccccc1)N=Cc1nc(-c2ccccc2)oc1O (centres undefined)
- TGI [1]: > 100 µM
- TGI [2]: > 100 µM
- TGI [3]: > 100 µM
- TGI [4]: > 100 µM
- TGI [5]: > 100 µM
- TGI [6]: > 100 µM
- TGI [7]: > 100 µM
- TGI [8]: > 100 µM
- TGI [9]: > 100 µM
- TGI [10]: > 100 µM
- TGI [11]: > 100 µM
- TGI [12]: > 100 µM
- TGI [13]: > 100 µM
- TGI [14]: > 100 µM
- TGI [15]: > 100 µM
- TGI [16]: > 100 µM
- TGI [17]: > 100 µM
- TGI [18]: > 100 µM
- TGI [19]: > 100 µM
- TGI [20]: > 100 µM
- TGI [21]: > 100 µM
- TGI [22]: > 100 µM
- TGI [23]: > 100 µM
- TGI [24]: > 100 µM
- TGI [25]: > 100 µM
- TGI [26]: > 100 µM
- TGI [27]: > 100 µM
- TGI [28]: > 100 µM
- TGI [29]: > 100 µM
- TGI [30]: > 100 µM
- TGI [31]: > 100 µM
- TGI [32]: > 100 µM
- TGI [33]: > 100 µM
- TGI [34]: > 100 µM
- TGI [35]: > 100 µM
- TGI [36]: > 100 µM
- TGI [37]: > 100 µM
- TGI [38]: > 100 µM
- TGI [39]: > 100 µM
- TGI [40]: > 100 µM
- TGI [41]: > 100 µM
- TGI [42]: > 100 µM
- TGI [43]: > 100 µM
- TGI [44]: > 100 µM
- TGI [45]: > 100 µM
- TGI [46]: > 100 µM
- TGI [47]: > 100 µM
- TGI [48]: > 100 µM
- TGI [49]: > 100 µM
- TGI [50]: > 100 µM
- TGI [51]: > 100 µM
- TGI [52]: > 100 µM
- TGI [53]: > 100 µM
- TGI [54]: > 100 µM
- TGI [55]: > 100 µM

SMILES: CCOC(=O)NC(=O)c1cn(C2CCCCC2)c(=O)n(C)c1=O
- TGI [1]: > 100 µM
- TGI [2]: > 100 µM
- TGI [3]: > 100 µM
- TGI [4]: > 100 µM
- TGI [5]: > 100 µM
- TGI [6]: > 100 µM
- TGI [7]: > 100 µM
- TGI [8]: > 100 µM
- TGI [56]: > 100 µM
- TGI [9]: > 100 µM
- TGI [11]: > 100 µM
- TGI [12]: > 100 µM
- TGI [13]: > 100 µM
- TGI [14]: > 100 µM
- TGI [57]: > 100 µM
- TGI [15]: > 100 µM
- TGI [58]: > 100 µM
- TGI [16]: > 100 µM
- TGI [17]: > 100 µM
- TGI [18]: > 100 µM
- TGI [19]: > 100 µM
- TGI [20]: > 100 µM
- TGI [21]: > 100 µM
- TGI [22]: > 100 µM
- TGI [23]: > 100 µM
- TGI [24]: > 100 µM
- TGI [25]: > 100 µM
- TGI [26]: > 100 µM
- TGI [27]: > 100 µM
- TGI [28]: > 100 µM
- TGI [29]: > 100 µM
- TGI [30]: > 100 µM
- TGI [31]: > 100 µM
- TGI [32]: > 100 µM
- TGI [33]: > 100 µM
- TGI [34]: > 100 µM
- TGI [35]: > 100 µM
- TGI [36]: > 100 µM
- TGI [37]: > 100 µM
- TGI [38]: > 100 µM
- TGI [39]: > 100 µM
- TGI [40]: > 100 µM
- TGI [41]: > 100 µM
- TGI [42]: > 100 µM
- TGI [43]: > 100 µM
- TGI [44]: > 100 µM
- TGI [45]: > 100 µM
- TGI [46]: > 100 µM
- TGI [47]: > 100 µM
- TGI [48]: > 100 µM
- TGI [49]: > 100 µM
- TGI [50]: > 100 µM
- TGI [51]: > 100 µM
- TGI [52]: > 100 µM
- TGI [53]: > 100 µM
- TGI [54]: > 100 µM
- TGI [55]: > 100 µM

SMILES: O=CC1=CCCN(CCc2c[nH]c3ccccc23)C1
- TGI [1]: 117 µM
- TGI [3]: > 393 µM
- TGI [4]: 125 µM
- TGI [5]: 141 µM
- TGI [6]: > 393 µM
- TGI [7]: 149 µM
- TGI [8]: 111 µM
- TGI [56]: 146 µM
- TGI [9]: 94.4 µM
- TGI [10]: 202 µM
- TGI [11]: 128 µM
- TGI [12]: 80.4 µM
- TGI [13]: 83.2 µM
- TGI [14]: 91.3 µM
- TGI [57]: 109 µM
- TGI [15]: 104 µM
- TGI [58]: 121 µM
- TGI [16]: 116 µM
- TGI [17]: 176 µM
- TGI [18]: > 393 µM
- TGI [19]: 128 µM
- TGI [20]: 122 µM
- TGI [21]: 12.2 µM
- TGI [22]: 45.8 µM
- TGI [24]: 152 µM
- TGI [25]: 122 µM
- TGI [26]: > 393 µM
- TGI [27]: 102 µM
- TGI [28]: 101 µM
- TGI [29]: 105 µM
- TGI [30]: 139 µM
- TGI [31]: 95.9 µM
- TGI [33]: 126 µM
- TGI [34]: 206 µM
- TGI [35]: > 393 µM
- TGI [36]: 85.8 µM
- TGI [37]: 102 µM
- TGI [38]: 162 µM
- TGI [39]: 112 µM
- TGI [40]: 108 µM
- TGI [41]: 119 µM
- TGI [42]: 41.1 µM
- TGI [43]: 129 µM
- TGI [44]: 224 µM
- TGI [45]: 109 µM
- TGI [46]: 92.9 µM
- TGI [49]: > 393 µM
- TGI [50]: 89.9 µM
- TGI [51]: 140 µM
- TGI [52]: 105 µM
- TGI [53]: 132 µM
- TGI [54]: 111 µM
